ChEMBL document CHEMBL1201862, “PubChem BioAssay data set” (2004)
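Dose response: 5 concentrations. Exposure: 48 h. Format: 96-well plates. Endpoint: linear interpolation; highest concentration if not reached. GI50 is the concentration that inhibits growth by half.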 Calls of active or inactive are those of the source. Rule as the data show it: active = GI50 up to about 1.1 µM and inactive = higher.

Key:
Experiment in all cases: NCI-60 cell line screen, 48 h
A498 = tested on: A498
A549 = tested on: A549
EKVX = tested on: EKVX
HCC 2998 = tested on: HCC 2998
IGROV-1 = tested on: IGROV-1
M14 = tested on: M14
MCF7 = tested on: MCF7
MOLT-4 = tested on: MOLT-4
NCI/ADR-RES = tested on: NCI/ADR-RES
OVCAR-3 = tested on: OVCAR-3
OVCAR-4 = tested on: OVCAR-4
RPMI-8226 = tested on: RPMI-8226
RXF 393 = tested on: RXF 393
SK-MEL-28 = tested on: SK-MEL-28
SK-MEL-5 = tested on: SK-MEL-5
SW-620 = tested on: SW-620
U-251 = tested on: U-251

Measured: GI50

O=C1OC(C2Cc3ccc4ccccc4c3C2=O)c2ccccc21 (centres undefined)
inactive: A498 > 100 µM | A549 36.9 µM | EKVX 29.6 µM | HCC 2998 55.5 µM | IGROV-1 39.4 µM | M14 92.9 µM | MCF7 42.8 µM | MOLT-4 31.4 µM | NCI/ADR-RES 49.2 µM | OVCAR-3 30.5 µM | OVCAR-4 24.4 µM | RPMI-8226 25.9 µM | RXF 393 17.4 µM | SK-MEL-28 55.5 µM | SK-MEL-5 22 µM | SW-620 37.8 µM | U-251 32.7 µM

COc1ccc2c(c1)CC[C@@H]1[C@@H]2CC[C@]2(C)C(=O)/C(=C/c3cc(OC)c(OC)c(OC)c3)C[C@@H]12
inactive: A498 59 µM | A549 40.9 µM | EKVX 61.2 µM | HCC 2998 42.8 µM | M14 23.2 µM | MCF7 42.5 µM | MOLT-4 95.9 µM | NCI/ADR-RES 15.4 µM | OVCAR-3 19.5 µM | OVCAR-4 40.4 µM | RPMI-8226 > 100 µM | RXF 393 29.6 µM | SK-MEL-5 71.3 µM | SW-620 > 100 µM | U-251 34.8 µM

CCc1nnc(S)n1/N=C\c1ccc(-c2ccccc2Cl)o1
inactive: A498 36.6 µM | A549 32.6 µM | EKVX 36.4 µM | HCC 2998 27.3 µM | IGROV-1 38.7 µM | M14 33.2 µM | MCF7 32 µM | MOLT-4 17.5 µM | NCI/ADR-RES 22 µM | OVCAR-3 40.6 µM | OVCAR-4 39.4 µM | RPMI-8226 20.5 µM | RXF 393 38.9 µM | SK-MEL-5 14.3 µM | SW-620 27.7 µM | U-251 32.3 µM

CCOC(=O)/C(C(=O)NC(C)C)=C(/N)N1CCOCC1
inactive: A498 > 100 µM | A549 > 100 µM | EKVX > 100 µM | HCC 2998 > 100 µM | IGROV-1 > 100 µM | M14 > 100 µM | MCF7 > 100 µM | MOLT-4 > 100 µM | NCI/ADR-RES > 100 µM | OVCAR-3 > 100 µM | OVCAR-4 > 100 µM | RPMI-8226 > 100 µM | RXF 393 > 100 µM | SK-MEL-28 > 100 µM | SW-620 > 100 µM | U-251 > 100 µM

CCOC(NC(=O)CC)(C(F)(F)F)C(F)(F)F
inactive: A498 > 100 µM | A549 > 100 µM | EKVX > 100 µM | HCC 2998 > 100 µM | IGROV-1 > 100 µM | M14 > 100 µM | MCF7 > 100 µM | MOLT-4 > 100 µM | NCI/ADR-RES > 100 µM | OVCAR-3 > 100 µM | RPMI-8226 > 100 µM | SK-MEL-28 > 100 µM | SK-MEL-5 > 100 µM | SW-620 > 100 µM | U-251 > 100 µM
active: RXF 393 0.145 µM

CCOC(=O)c1ccc2c(=O)n3c(C(=O)OCC)ccc3c(=O)n12
inactive: A498 > 100 µM | A549 > 100 µM | EKVX > 100 µM | HCC 2998 > 100 µM | IGROV-1 > 100 µM | M14 > 100 µM | MCF7 > 100 µM | MOLT-4 > 100 µM | NCI/ADR-RES > 100 µM | OVCAR-3 > 100 µM | OVCAR-4 > 100 µM | RPMI-8226 > 100 µM | RXF 393 > 100 µM | SK-MEL-28 > 100 µM | SK-MEL-5 > 100 µM | SW-620 > 100 µM | U-251 > 100 µM

COc1ccc(C2OC[C@H]3O[C@@H](OCc4ccccc4)[C@H](O)[C@@H](O)[C@@H]3O2)cc1 (some centres undefined)
inactive: A498 > 100 µM | A549 > 100 µM | EKVX 68.5 µM | HCC 2998 > 100 µM | IGROV-1 55 µM | MCF7 > 100 µM | MOLT-4 41.9 µM | NCI/ADR-RES > 100 µM | OVCAR-3 > 100 µM | OVCAR-4 84.5 µM | RPMI-8226 76.9 µM | RXF 393 > 100 µM | SK-MEL-28 > 100 µM | SK-MEL-5 58.2 µM | SW-620 > 100 µM | U-251 > 100 µM

CN1CCOC(c2ccc(Cl)cc2)O1 (centres undefined)
inactive: A498 > 100 µM | A549 > 100 µM | EKVX > 100 µM | HCC 2998 > 100 µM | IGROV-1 > 100 µM | M14 > 100 µM | MCF7 > 100 µM | MOLT-4 > 100 µM | NCI/ADR-RES > 100 µM | OVCAR-3 > 100 µM | OVCAR-4 > 100 µM | RXF 393 > 100 µM | SK-MEL-28 > 100 µM | SK-MEL-5 > 100 µM | SW-620 > 100 µM | U-251 > 100 µM

C=CCn1c(-c2ccc(Cl)cc2)cs/c1=N\c1ccccc1OC
active: MOLT-4 0.179 µM
inactive: A498 > 100 µM | A549 33 µM | HCC 2998 > 100 µM | IGROV-1 > 100 µM | M14 10.1 µM | MCF7 27.4 µM | NCI/ADR-RES 6.5 µM | OVCAR-3 40.8 µM | OVCAR-4 > 58.5 µM | RPMI-8226 5.6 µM | RXF 393 > 100 µM | SK-MEL-28 > 47.2 µM | SK-MEL-5 2.31 µM | SW-620 60 µM | U-251 > 69.5 µM

CC(=O)Nc1ccc2[nH]c(C(=O)N3CC(CCl)c4c3cc([N+](=O)[O-])c3ccccc43)cc2c1 (centres undefined)
active: A498 0.863 µM | A549 0.393 µM | MOLT-4 0.889 µM | RPMI-8226 1.02 µM
inactive: EKVX 5.09 µM | HCC 2998 6.4 µM | IGROV-1 2.92 µM | M14 24.2 µM | MCF7 5.25 µM | NCI/ADR-RES 4.45 µM | OVCAR-3 > 100 µM | OVCAR-4 > 36.3 µM | RXF 393 4.74 µM | SK-MEL-28 > 35.6 µM | SK-MEL-5 5.89 µM | SW-620 9.23 µM | U-251 3.48 µM

C=CCN(c1cc(OC)c2[nH]c(C(=O)O)c(C)c2c1[N+](=O)[O-])S(C)(=O)=O
inactive: A498 > 100 µM | A549 > 100 µM | EKVX > 100 µM | HCC 2998 > 100 µM | IGROV-1 > 100 µM | M14 > 100 µM | MCF7 > 100 µM | MOLT-4 > 100 µM | NCI/ADR-RES > 100 µM | OVCAR-3 > 100 µM | OVCAR-4 > 100 µM | RPMI-8226 > 100 µM | RXF 393 > 100 µM | SK-MEL-28 > 100 µM | SK-MEL-5 > 100 µM | SW-620 > 100 µM | U-251 > 100 µM

CC(O)C1(CNc2cc(Cl)nc(N)n2)CCCCC1 (centres undefined)
inactive: A498 39.3 µM | A549 77.6 µM | EKVX 58.1 µM | IGROV-1 > 100 µM | M14 > 100 µM | MCF7 82.2 µM | MOLT-4 35.6 µM | NCI/ADR-RES 58.2 µM | OVCAR-3 > 100 µM | OVCAR-4 37.3 µM | RPMI-8226 48.9 µM | RXF 393 > 100 µM | SK-MEL-28 > 100 µM | SK-MEL-5 45.6 µM | SW-620 > 100 µM | U-251 > 100 µM

O=C(NC(OCc1ccccc1)(C(F)(F)F)C(F)(F)F)OCc1ccccc1
inactive: A498 17.7 µM | A549 15 µM | EKVX 15.2 µM | HCC 2998 15.4 µM | IGROV-1 15.1 µM | M14 18.9 µM | MCF7 16.4 µM | MOLT-4 18.1 µM | NCI/ADR-RES 12.6 µM | OVCAR-3 15.3 µM | RPMI-8226 16.4 µM | RXF 393 12.5 µM | SK-MEL-28 17.7 µM | SK-MEL-5 15.8 µM | SW-620 17.3 µM | U-251 14.1 µM

S=C1C(CCCOCc2ccccc2)C2CCCC23CC2(CCN13)OCCS2 (centres undefined)
inactive: A498 > 10 µM | EKVX > 10 µM | HCC 2998 > 10 µM | IGROV-1 > 10 µM | M14 > 10 µM | MCF7 > 10 µM | MOLT-4 > 10 µM | NCI/ADR-RES > 10 µM | OVCAR-3 > 10 µM | OVCAR-4 > 10 µM | RPMI-8226 > 10 µM | RXF 393 > 10 µM | SK-MEL-28 > 10 µM | SK-MEL-5 > 10 µM | SW-620 > 10 µM | U-251 > 10 µM

CSc1nc(C)c2c(n1)SCC2
inactive: A498 > 10 µM | A549 > 10 µM | EKVX > 10 µM | IGROV-1 > 10 µM | M14 > 10 µM | MCF7 > 10 µM | MOLT-4 > 10 µM | NCI/ADR-RES > 10 µM | OVCAR-3 > 10 µM | OVCAR-4 > 10 µM | RPMI-8226 > 10 µM | RXF 393 > 10 µM | SK-MEL-28 > 10 µM | SK-MEL-5 > 10 µM | SW-620 > 10 µM | U-251 > 10 µM

CN(C)c1nc2nonc2nc1Nc1ccccc1
inactive: A498 > 100 µM | A549 > 100 µM | EKVX > 100 µM | HCC 2998 > 100 µM | IGROV-1 > 100 µM | M14 > 100 µM | MCF7 > 100 µM | MOLT-4 > 100 µM | NCI/ADR-RES > 100 µM | RPMI-8226 > 100 µM | RXF 393 > 100 µM | SK-MEL-28 > 100 µM | SK-MEL-5 > 100 µM | SW-620 > 100 µM | U-251 > 100 µM

Nc1ncnc2c1ncn2C1OC(C(=O)OCCO)C(O)C1O (centres undefined)
inactive: A498 > 100 µM | A549 > 100 µM | EKVX > 100 µM | IGROV-1 > 100 µM | M14 > 100 µM | MCF7 > 100 µM | MOLT-4 > 100 µM | NCI/ADR-RES > 100 µM | OVCAR-3 > 100 µM | OVCAR-4 > 100 µM | RPMI-8226 > 100 µM | RXF 393 > 100 µM | SK-MEL-28 > 100 µM | SK-MEL-5 > 100 µM | SW-620 > 100 µM | U-251 > 100 µM
